Test results from ChEMBL document CHEMBL3217630, “Intramolecular hydrogen bonding to improve membrane permeability and absorption in beyond rule of five chemical space” (Medchemcomm, 2011).

Columns and labels:
[1] = test system: Rattus norvegicus; assay: (§1) Oral bioavailability in rat; assay type: ADME, organism-based; settings: in vivo
[2] = Apparent permeability across apical to basolateral side of MDCK cells; assay type: ADME, cell-based, Canis lupus familiaris; settings: dog
[3] = Fraction of the dose absorbed in rat; assay type: ADME, organism-based; settings: in vivo, read-out: Fabs
[4] = Oral bioavailability in human; assay type: ADME, organism-based; settings: in vivo
[5] = as §1; assay type: ADME, organism-based; settings: in vivo

**Q.** Which F [1] does the source give for COCCCOc1cc(C[C@@H](C[C@H](N)[C@@H](O)C[C@H](C(=O)NCC(C)(C)C(N)=O)C(C)C)C(C)C)ccc1OC here?
**A.** Its F is 0.1%.

**Q.** And the Papp A→B [2]?
**A.** The Papp A→B was 1 ×10⁻⁶ cm/s.

**Q.** What about the Fa [3] of the same molecule?
**A.** The Fa was 0.5%.

**Q.** And the bioavailability [4]?
**A.** Its bioavailability is 3%.

**Q.** For COC(=O)N[C@H](C(=O)N[C@@H](Cc1ccccc1)[C@@H](O)CN(Cc1ccc(-c2ccccn2)cc1)NC(=O)[C@@H](NC(=O)OC)C(C)(C)C)C(C)(C)C [ATAZANAVIR], which bioavailability [5] is on record?
**A.** The bioavailability was 10%.

**Q.** What about the Papp A→B [2] of the same molecule?
**A.** Its Papp A→B is 35 ×10⁻⁶ cm/s.

**Q.** And the Fa [3]?
**A.** Its Fa is 54%.

**Q.** What about the bioavailability [4] of the same molecule?
**A.** The bioavailability was 60%.
